According to the NIST ThermoML archive (doi:10.1016/j.jct.2006.08.009):
± gives the expanded uncertainty stated by the source.

Assay: mn = molality of the nth substance listed, in mol/kg
Conditions: 350 kPa, Liquid; for apparent molar heat capacity: Extra sensitive DSC

OC[C@@H](O)[C@@H](O)CO [meso-1,2,3,4-butanetetrol] + O
Conditions	apparent molar heat capacity [J/K/mol]	mass density [kg/m3]
318.15 K, m1 = 0.4998	–	1006.84 ± 0.18
318.15 K, m1 = 1	–	1021.96 ± 0.21
318.15 K, m1 = 2.002	–	1048.89 ± 0.27
318.15 K, m1 = 3.003	–	1071.67 ± 0.32
323.15 K, m1 = 0.0201	318 ± 77	–
323.15 K, m1 = 0.05	338 ± 32	–
323.15 K, m1 = 0.0999	334.4 ± 16	–
323.15 K, m1 = 0.2501	332.7 ± 7	–
323.15 K, m1 = 0.4998	331.6 ± 4.2	–
323.15 K, m1 = 1	330.1 ± 3	–
323.15 K, m1 = 2.002	324.5 ± 2.4	–
323.15 K, m1 = 3.003	325.24 ± 2.2	–
328.15 K, m1 = 0.0201	322 ± 75	986.49 ± 0.2
328.15 K, m1 = 0.05	341 ± 30	987.47 ± 0.19
328.15 K, m1 = 0.0999	337.8 ± 16	988.94 ± 0.19
328.15 K, m1 = 0.2501	336 ± 6.8	994.21 ± 0.18
328.15 K, m1 = 0.4998	335 ± 4.2	1002.15 ± 0.17
328.15 K, m1 = 1	333.5 ± 3	1017.15 ± 0.2
328.15 K, m1 = 2.002	328 ± 2.4	1043.78 ± 0.26
328.15 K, m1 = 3.003	328.66 ± 2.2	1066.4 ± 0.31
333.15 K, m1 = 0.0201	325 ± 75	–
333.15 K, m1 = 0.05	344 ± 30	–
333.15 K, m1 = 0.0999	341 ± 16	–
333.15 K, m1 = 0.2501	339.2 ± 6.8	–
333.15 K, m1 = 0.4998	338.1 ± 4	–
333.15 K, m1 = 1	336.7 ± 3	–
333.15 K, m1 = 2.002	331.2 ± 2.4	–
333.15 K, m1 = 3.003	331.8 ± 2.1	–
338.15 K, m1 = 0.0201	328 ± 73	981.39 ± 0.21
338.15 K, m1 = 0.05	347 ± 30	982.33 ± 0.2
338.15 K, m1 = 0.0999	343.9 ± 15	983.83 ± 0.2
338.15 K, m1 = 0.2501	342 ± 6.6	988.99 ± 0.19
338.15 K, m1 = 0.4998	340.9 ± 4	996.87 ± 0.17
338.15 K, m1 = 1	339.5 ± 2.8	1011.73 ± 0.19
338.15 K, m1 = 2.002	334.2 ± 2.3	1038.15 ± 0.25
338.15 K, m1 = 3.003	334.7 ± 2.1	1060.56 ± 0.29
343.15 K, m1 = 0.0201	330 ± 72	–
343.15 K, m1 = 0.05	350 ± 30	–
343.15 K, m1 = 0.0999	346.4 ± 15	–
343.15 K, m1 = 0.2501	344.5 ± 6.6	–
343.15 K, m1 = 0.4998	343.5 ± 4	–
343.15 K, m1 = 1	342.1 ± 2.8	–
343.15 K, m1 = 2.002	336.9 ± 2.3	–
343.15 K, m1 = 3.003	337.33 ± 2.1	–
348.15 K, m1 = 0.0201	332 ± 72	975.69 ± 0.22
348.15 K, m1 = 0.05	352 ± 28	976.65 ± 0.22
348.15 K, m1 = 0.0999	348.7 ± 15	978.12 ± 0.21
348.15 K, m1 = 0.2501	346.8 ± 6.5	983.23 ± 0.2
348.15 K, m1 = 0.4998	345.8 ± 4	991.14 ± 0.19
348.15 K, m1 = 1	344.4 ± 2.8	1005.88 ± 0.18
348.15 K, m1 = 2.002	339.4 ± 2.3	1032.07 ± 0.24
348.15 K, m1 = 3.003	339.73 ± 2.1	1054.35 ± 0.28
353.15 K, m1 = 0.0201	334 ± 70	–
353.15 K, m1 = 0.05	354 ± 28	–
353.15 K, m1 = 0.0999	350.7 ± 15	–
353.15 K, m1 = 0.2501	348.9 ± 6.5	–
353.15 K, m1 = 0.4998	347.8 ± 3.9	–
353.15 K, m1 = 1	346.5 ± 2.8	–
353.15 K, m1 = 2.002	341.77 ± 2.3	–
353.15 K, m1 = 3.003	341.88 ± 2.1	–
358.15 K, m1 = 0.0201	336 ± 70	969.51 ± 0.23
358.15 K, m1 = 0.05	356 ± 28	970.13 ± 0.23
358.15 K, m1 = 0.0999	352.4 ± 15	971.92 ± 0.23
358.15 K, m1 = 0.2501	350.5 ± 6.3	976.99 ± 0.22
358.15 K, m1 = 0.4998	349.5 ± 3.9	984.82 ± 0.2
358.15 K, m1 = 1	348.2 ± 2.8	999.52 ± 0.17
358.15 K, m1 = 2.002	343.88 ± 2.3	1025.52 ± 0.22
358.15 K, m1 = 3.003	343.6 ± 2	1047.59 ± 0.27
363.15 K, m1 = 0.0201	337 ± 68	–
363.15 K, m1 = 0.05	357 ± 28	–
363.15 K, m1 = 0.0999	353 ± 14	–
363.15 K, m1 = 0.2501	351.1 ± 6.3	–
363.15 K, m1 = 0.4998	350 ± 3.9	–
363.15 K, m1 = 1	348.7 ± 2.8	–
363.15 K, m1 = 2.002	345.8 ± 2.3	–
363.15 K, m1 = 3.003	344.06 ± 2.1	–
368.15 K, m1 = 0.0201	–	962.63 ± 0.25
368.15 K, m1 = 0.05	–	963.59 ± 0.24
368.15 K, m1 = 0.0999	–	965.08 ± 0.24
368.15 K, m1 = 0.2501	–	970.07 ± 0.23
368.15 K, m1 = 0.4998	–	978.02 ± 0.22
368.15 K, m1 = 1	–	992.7 ± 0.19
368.15 K, m1 = 2.002	–	1018.73 ± 0.21
368.15 K, m1 = 3.003	–	1041.19 ± 0.26
